By melting point is commonly meant the temperature, or range, at which the solid turns liquid. For the molecule `O=C(Nc1nc(-c2ccco2)c(C(=O)C2CCOCC2)s1)c1ccc(Cl)cc1` [Compound 471, 4-Chloro-N-[4-(2-furyl)-5-(tetrahydropyran-4-ylcarbonyl)thiazol-2-yl]benzamide], the melting point lay in the range of 204 to 206 °C. As for `N#Cc1ccccc1C(=O)Nc1nc(-c2ccco2)c(C(=O)C2CCOCC2)s1` [Compound 472, 2-Cyano-N-[4-(2-furyl)-5-(tetrahydropyran-4-ylcarbonyl)thiazol-2-yl]benzamide], the figure is 221 to 224 °C; as for `N#Cc1cccc(C(=O)Nc2nc(-c3ccco3)c(C(=O)C3CCOCC3)s2)c1` [Compound 473, 3-Cyano-N-[4-(2-furyl)-5-(tetrahydropyran-4-ylcarbonyl)thiazol-2-yl]benzamide], 257 to 260 °C.

For `N#Cc1ccc(C(=O)Nc2nc(-c3ccco3)c(C(=O)C3CCOCC3)s2)cc1` [Compound 474, 4-Cyano-N-[4-(2-furyl)-5-(tetrahydropyran-4-ylcarbonyl)thiazol-2-yl]benzamide], the melting point lay in the range of 231 to 234 °C. As to `O=C(Nc1nc(-c2ccco2)c(C(=O)C2CCOCC2)s1)c1ccccc1OC(F)(F)F` [Compound 475, N-[4-(2-Furyl)-5-(tetrahydropyran-4-ylcarbonyl)thiazol-2-yl]-2-(trifluoromethoxy)benzamide], the melting point was 131 to 134 °C.

Turning to `O=C(Nc1nc(-c2ccco2)c(C(=O)C2CCOCC2)s1)c1cccc(OC(F)(F)F)c1` [Compound 476, N-[4-(2-Furyl)-5-(tetrahydropyran-4-ylcarbonyl)thiazol-2-yl]-3-(trifluoromethoxy)benzamide], the melting point was in the range of 197 to 198 °C.

As to `O=C(Nc1nc(-c2ccco2)c(C(=O)C2CCOCC2)s1)c1ccc(OC(F)(F)F)cc1` [Compound 477, N-[4-(2-Furyl)-5-(tetrahydropyran-4-ylcarbonyl)thiazol-2-yl]-4-(trifluoromethoxy)benzamide], the melting point fell in the range of 177 to 180 °C. Consider `CN(C)Cc1ccc(C(=O)Nc2nc(-c3ccco3)c(C(=O)C3CCOCC3)s2)cc1` [Compound 479, 4-(Dimethylaminomethyl)-N-[4-(2-furyl)-5-(tetrahydropyran-4-ylcarbonyl)thiazol-2-yl]benzamide], for which the melting point fell in the range of 109 to 112 °C.

`O=C(Nc1nc(-c2ccco2)c(C(=O)C2CCOCC2)s1)c1ccc(CN2CCCCC2)cc1` [Compound 480, N-[4-(2-Furyl)-5-(tetrahydropyran-4-ylcarbonyl)thiazol-2-yl]-4-(piperidinomethyl)benzamide] yielded a melting point of 160 to 162 °C.

In turn, `O=C(Nc1nc(-c2ccco2)c(C(=O)C2CCOCC2)s1)c1ccc(CN2CCC(O)CC2)cc1` [Compound 481, N-[4-(2-Furyl)-5-(tetrahydropyran-4-ylcarbonyl)thiazol-2-yl]-4-(4-hydroxypiperidinomethyl)benzamide] registered a melting point of 194 to 195 °C. `O=C(Nc1nc(-c2ccco2)c(C(=O)C2CCOCC2)s1)c1ccc(CN2CCOCC2)cc1` [Compound 482, N-[4-(2-Furyl)-5-(tetrahydropyran-4-ylcarbonyl)thiazol-2-yl]-4-(morpholinomethyl)benzamide]: the melting point was in the range of 92 to 96 °C. The result for `COc1cccc(C(=O)Nc2nc(-c3ccco3)c(C(=O)C3CCOCC3)s2)c1OC` [Compound 483, N-[4-(2-Furyl)-5-(tetrahydropyran-4-ylcarbonyl)thiazol-2-yl]-2,3-dimethoxybenzamide] reads 198 to 200 °C. In the case of `COc1ccc(C(=O)Nc2nc(-c3ccco3)c(C(=O)C3CCOCC3)s2)c(OC)c1` [Compound 484, N-[4-(2-Furyl)-5-(tetrahydropyran-4-ylcarbonyl)thiazol-2-yl]-2,4-dimethoxybenzamide], the melting point fell in the range of 219 to 222 °C. For `COc1ccc(OC)c(C(=O)Nc2nc(-c3ccco3)c(C(=O)C3CCOCC3)s2)c1` [Compound 485, N-[4-(2-Furyl)-5-(tetrahydropyran-4-ylcarbonyl)thiazol-2-yl]-2,5-dimethoxybenzamide], the melting point was 107 to 110 °C. As for `COc1cccc(OC)c1C(=O)Nc1nc(-c2ccco2)c(C(=O)C2CCOCC2)s1` [Compound 486, N-[4-(2-Furyl)-5-(tetrahydropyran-4-ylcarbonyl)thiazol-2-yl]-2,6-dimethoxybenzamide], the figure is 152 to 156 °C; as for `COc1ccc(C(=O)Nc2nc(-c3ccco3)c(C(=O)C3CCOCC3)s2)cc1OC` [Compound 487, N-[4-(2-Furyl)-5-(tetrahydropyran-4-ylcarbonyl)thiazol-2-yl]-3,4-dimethoxybenzamide], 289 to 292 °C; as for `COc1cc(OC)cc(C(=O)Nc2nc(-c3ccco3)c(C(=O)C3CCOCC3)s2)c1` [Compound 488, N-[4-(2-Furyl)-5-(tetrahydropyran-4-ylcarbonyl)thiazol-2-yl]-3,5-dimethoxybenzamide], 278 to 280 °C. The result for `O=C(Nc1nc(-c2ccco2)c(C(=O)C2CCOCC2)s1)c1cccc(F)c1F` [Compound 489, 2,3-Difluoro-N-[4-(2-furyl)-5-(tetrahydropyran-4-ylcarbonyl)thiazol-2-yl]benzamide] reads 154 to 160 °C; that for `O=C(Nc1nc(-c2ccco2)c(C(=O)C2CCOCC2)s1)c1ccc(F)cc1F` [Compound 490, 2,4-Difluoro-N-[4-(2-furyl)-5-(tetrahydropyran-4-ylcarbonyl)thiazol-2-yl]benzamide], 213 to 215 °C. Turning to `O=C(Nc1nc(-c2ccco2)c(C(=O)C2CCOCC2)s1)c1cc(F)ccc1F` [Compound 491, 2,5-Difluoro-N-[4-(2-furyl)-5-(tetrahydropyran-4-ylcarbonyl)thiazol-2-yl]benzamide], the melting point was 172 to 174 °C. `O=C(Nc1nc(-c2ccco2)c(C(=O)C2CCOCC2)s1)c1c(F)cccc1F` [Compound 492, 2,6-Difluoro-N-[4-(2-furyl)-5-(tetrahydropyran-4-ylcarbonyl)thiazol-2-yl]benzamide]: the melting point fell in the range of 168 to 170 °C. The result for `O=C(Nc1nc(-c2ccco2)c(C(=O)C2CCOCC2)s1)c1ccc(F)c(F)c1` [Compound 493, 3,4-Difluoro-N-[4-(2-furyl)-5-(tetrahydropyran-4-ylcarbonyl)thiazol-2-yl]benzamide] reads 208 to 210 °C.

With `O=C(Nc1nc(-c2ccco2)c(C(=O)C2CCOCC2)s1)c1cc(F)cc(F)c1` [Compound 494, 3,5-Difluoro-N-[4-(2-furyl)-5-(tetrahydropyran-4-ylcarbonyl)thiazol-2-yl]benzamide], the melting point is 259 to 265 °C. As for `O=C(Nc1nc(-c2ccco2)c(C(=O)C2CCOCC2)s1)c1cccc2c1OCCO2` [Compound 495, N-[4-(2-Furyl)-5-(tetrahydropyran-4-ylcarbonyl)thiazol-2-yl]-1,4-benzodioxane-5-carboxamide], the figure is 188 to 190 °C. `O=C(Nc1nc(-c2ccco2)c(C(=O)C2CCOCC2)s1)c1ccc2c(c1)OCO2` [Compound 496, N-[4-(2-Furyl)-5-(tetrahydropyran-4-ylcarbonyl)thiazol-2-yl]-1,3-benzodioxole-5-carboxamide]: the melting point is 194 to 196 °C. The result for `O=C(Nc1nc(-c2ccco2)c(C(=O)C2CCOCC2)s1)c1cccc2c1OC(F)(F)O2` [Compound 497, 2,2-Difluoro-N-[4-(2-furyl)-5-(tetrahydropyran-4-ylcarbonyl)thiazol-2-yl]-1,3-benzodioxole-4-carboxamide] reads 206 to 207 °C. The molecule `O=C(Nc1nc(-c2ccco2)c(C(=O)C2CCOCC2)s1)c1ccc2c(c1)OC(F)(F)O2` [Compound 498, 2,2-Difluoro-N-[4-(2-furyl)-5-(tetrahydropyran-4-ylcarbonyl)thiazol-2-yl]-1,3-benzodioxole-5-carboxamide] showed a melting point of 124 to 129 °C. `O=C(Nc1nc(-c2ccco2)c(C(=O)C2CCOCC2)s1)c1ccnc(Cl)c1` [Compound 499, 2-Chloro-N-(4-(2-furyl)-5-(tetrahydropyran-4-ylcarbonyl)thiazol-2-yl]pyridine-4-carboxamide] showed a melting point of 185 to 186 °C. `Cc1cc(C(=O)Nc2nc(-c3ccco3)c(C(=O)C3CCOCC3)s2)ccn1` [Compound 500, N-[4-(2-Furyl)-5-(tetrahydropyran-4-ylcarbonyl)thiazol-2-yl]-2-methylpyridine-4-carboxamide] showed a melting point of 169 to 173 °C. As for `O=C(Nc1nc(-c2ccco2)c(C(=O)C2CCOCC2)s1)c1cccnc1` [Compound 501, N-[4-(2-Furyl)-5-(tetrahydropyran-4-ylcarbonyl)thiazol-2-yl]pyridine-3-carboxamide], the figure is 209 to 212 °C. As for `O=C(Nc1nc(-c2ccco2)c(C(=O)C2CCOCC2)s1)c1ccc(N2CCOCC2)nc1` [Compound 503, N-[4-(2-Furyl)-5-(tetrahydropyran-4-ylcarbonyl)thiazol-2-yl]-2-morpholinopyridine-5-carboxamide], the melting point was 166 to 170 °C. Consider `O=C(Nc1nc(-c2ccco2)c(C(=O)C2CCOCC2)s1)c1ccc(C(F)(F)F)nc1` [Compound 505, N-[4-(2-Furyl)-5-(tetrahydropyran-4-ylcarbonyl)thiazol-2-yl]-2-(trifluoromethyl)pyridine-5-carboxamide], for which the melting point lay within 217 to 222 °C. As for `Cc1cncc(C(=O)Nc2nc(-c3ccco3)c(C(=O)C3CCOCC3)s2)c1` [Compound 506, N-[4-(2-Furyl)-5-(tetrahydropyran-4-ylcarbonyl)thiazol-2-yl]-5-methylpyridine-3-carboxamide], the figure is 239 to 243 °C; as for `O=C(Nc1nc(-c2ccco2)c(C(=O)C2CCOCC2)s1)c1ccccn1` [Compound 507, N-[4-(2-Furyl)-5-(tetrahydropyran-4-ylcarbonyl)thiazol-2-yl]pyridine-2-carboxamide], 185 to 186 °C; as for `O=C(Nc1nc(-c2ccco2)c(C(=O)C2CCOCC2)s1)c1cnccn1` [Compound 509, N-[4-(2-Furyl)-5-(tetrahydropyran-4-ylcarbonyl)thiazol-2-yl]pyrazine-2-carboxamide], 200 to 205 °C. Regarding `Cc1cnc(C(=O)Nc2nc(-c3ccco3)c(C(=O)C3CCOCC3)s2)cn1` [Compound 510, N-[4-(2-Furyl)-5-(tetrahydropyran-4-ylcarbonyl)thiazol-2-yl]-5-methylpyrazine-2-carboxamide], the melting point lay within 130 to 131 °C.

(Values after patent US7718808B2, “Thiazole derivatives” (Kyowa Hakko Kirin Co., Ltd., priority 2003, dated 2010).)
